In assay [1] the target is T1, sorbitol dehydrogenase (Ovis aries, UniProt P07846).
T1 sequence (P07846 1-354): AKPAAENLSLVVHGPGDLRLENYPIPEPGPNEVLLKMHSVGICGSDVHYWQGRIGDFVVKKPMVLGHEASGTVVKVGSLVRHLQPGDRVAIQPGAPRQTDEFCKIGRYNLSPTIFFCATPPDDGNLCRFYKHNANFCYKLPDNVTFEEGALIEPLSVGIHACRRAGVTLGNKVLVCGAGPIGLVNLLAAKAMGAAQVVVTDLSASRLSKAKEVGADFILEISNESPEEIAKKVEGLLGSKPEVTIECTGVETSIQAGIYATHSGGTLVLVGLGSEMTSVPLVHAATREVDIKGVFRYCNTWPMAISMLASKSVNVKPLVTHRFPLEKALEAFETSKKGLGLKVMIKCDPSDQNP
The assay is described as follows: in vitro inhibition of sorbitol dehydrogenase by sera from dosed rats. To be noted: sera from rats dosed with the compound (FIG. 5). It counts as biochemical. How it is done: (§1) Male Sprague-Dawley rats (350-400 g) were used for these experiments. Diabetes was induced in some of the rats by a tail vein injection of streptozocin, 85 mg/kg. Twenty-four hours later, 4 groups of diabetic rats were given a single dose of 4-[4-(N,N-dimethylsulfamoyl)-piperazino]-2-methylpyrimidine (10, 50, 100, or 300 mg/kg) by oral gavage. Animals were sacrificed 4-6 hours after dosing and blood and sciatic nerves were harvested. Tissues and cells were extracted with 6% perchloric acid.
(§2) SDH activity was measured by a modification of the method described by U. Gerlach, Methodology of Enzymatic Analyses, edited by H. U. Bergmeyer, 3, 112-117 (1983). Aliquots of sera or urine were added to the assay system, which had final concentrations of reagents of 0.1M potassium phosphate buffer, pH 7.4, 5 mM NAD, 20 mM sorbitol, and 0.7 units/ml of sorbitol dehydrogenase. After incubation for 10 minutes at room temperature, the average change in sample absorbance was determined at 340 nm. SDH activity was presented as milliOD340 units/minute (OD340 =optical density at 340 nm).

The target of assay [2] is T1, sorbitol dehydrogenase. The assay is described as follows: inhibition of sorbitol dehydrogenase in vitro (direct test). The format is biochemical. The settings on record: tested directly on sorbitol dehydrogenase in vitro. How it is done: as §2
The IC50 values indicate the concentration at which fifty percent inhibition of sorbitol dehydrogenase in vitro was observed.

Assay [3] has as its system erythrocyte (red blood cell) fructose and sorbitol. Description: erythrocyte fructose and sorbitol in streptozocin-diabetic rats after a single oral dose. To be noted: single oral dose 10, 50, 100 or 300 mg/kg. The format is in vivo, rat (male Sprague-Dawley). How it is done:
as §1
(§3) Sorbitol in erythrocytes and nerves was measured by a modification of the method of R. S. Clements et al. (Science, 166: 1007-8, 1969). […] After incubation for 30 minutes at room temperature, sample fluorescence was determined on a fluorescence spectrophotometer with excitation at 366 nm and emission at 452 nm. After subtracting appropriate blanks, the amount of sorbitol in each sample was determined from a linear regression of sorbitol standards processed in the same manner as the tissue extracts.
(§4) Fructose was determined by a modification of the method described by M. Ameyama, Methods in Enzymology, 89: 20-25 (1982). […] After incubation for 60 minnutes at room temperature, sample fluorescence was determined on a fluorescence spectrophotometer with excitation at 560 nm and emission at 580 nm. […]

The test system of assay [4] is sciatic nerve fructose and sorbitol. The assay is described as follows: sciatic nerve fructose and sorbitol in streptozocin-diabetic rats after a single oral dose. The format is in vivo, rat (male Sprague-Dawley). The settings on record: single oral dose 10, 50, 100 or 300 mg/kg, 4-6 hours after dosing (FIG. 4). Here is the method:
as §1, §3, §4

Assay [5] concerns the target T1, sorbitol dehydrogenase. The assay is described as follows: in vitro inhibition of sorbitol dehydrogenase by urine from dosed rats. It counts as biochemical. Here is the method:
as §2

`Cc1nccc(N2CCN(S(=O)(=O)N(C)C)CC2)n1` [Compound 1, 4-[4-(N,N-dimethylsulfamoyl)-piperazino]-2-methylpyrimidine]: on sorbitol dehydrogenase [1], the “inhibition of SDH in vitro by sera from dosed rats” value was “potently inhibited SDH in vitro in a dose dependent manner”. Also, it took 500 µM to reach half-maximal inhibition against sorbitol dehydrogenase [2] (IC50). In addition, the “erythrocyte (RBC) fructose” value in assay [3] (4-6 hours after dosing (FIG. 1)) is listed as “dose dependently lowered”. For the same compound, in assay [3] (4-6 hours after dosing (FIG. 2)), the erythrocyte sorbitol result is recorded as “dose dependently raised”. The sciatic nerve sorbitol entry in assay [4] is “increase in sorbitol”. Also, on sorbitol dehydrogenase [5] (0.5 μl of urine of dosed animals (FIG. 6)), the “inhibition of SDH with as little as 0.5 μl of urine” value is listed as “strong inhibition”. The “SDH inhibitory activity of urine compared with sera” value at sorbitol dehydrogenase [5] (urine (FIG. 6) compared with sera (FIG. 5)) was “even more potent source of SDH inhibitory activity”. In addition, the “inhibition of SDH in vitro by urine of dosed animals” value against sorbitol dehydrogenase [5] (urine of animals dosed with the compound (FIG. 6)) was “potently inhibited SDH in vitro in a dose dependent manner”.

For the origin of these results see US5728704A, “Substituted pyridmidines for control of diabetic complications” (Pfizer Inc., priority 1995, dated 1998).
